# Measured values from the supplement of paper PMC4862054.
# Key:
# Conditions in all cases: 72 h
# [1] = system: CAL-51
# Experimental: (§1)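 Drug sensitivity and resistance testing (DSRT) of breast cancer cell lines in 384-well plates, 5 concentrations in 10-fold dilutions over a compound-specific 10,000-fold range. After 72 h, cytotoxicity was read by CellTox Green fluorescence and viability by CellTiter-Glo luminescence (multiplexed), normalised to DMSO and benzethonium chloride controls. EC50 is the inflection point of the fitted dose-response curve (bottom asymptote free, so it can be relative for partial curves) and is censored at the highest tested concentration. Rows with DSS 0 (no meaningful response) were excluded.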
# [2] = system: CAL-85-1
# Experimental: as §1
# [3] = system: MDA-MB-468
# Experimental: as §1
# [4] = system: BT-549
# Experimental: as §1
# [5] = system: BT-474
# Experimental: as §1
# [6] = system: Hs578T
# Experimental: as §1
# [7] = system: MDA-MB-453
# Summary of the method: (§2)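 The reported EC50 was fitted from percent-inhibition dose-response curves and censored at the highest concentration. Breast cancer cell lines (20 µl suspension) were added to 384-well plates containing compound in 5 µl medium and incubated 72 h, and viability was read with 2.5 µl CellTiter-Blue over 2 h at 37 °C at 560/590 nm. Each plate was normalised to vehicle and a positive kill control and checked by Z'-factor, and rows with zero drug sensitivity score were dropped.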
# [8] = system: DU-4475
# Summary of the method: as §2
# [9] = system: CAL-51; remark: listed apart in the source
# Summary of the method: as §2
# [10] = system: CAL-85-1; remark: listed apart in the source
# Summary of the method: as §2
# [11] = system: CAL-148
# Summary of the method: as §2
structure (smiles),measurement,setting,value
C=CCn1c(=O)c2cnc(Nc3ccc(N4CCN(C)CC4)cc3)nc2n1-c1cccc(C(C)(C)O)n1 [MK1775],"EC50, CellTox Green",[1],154 nM
same,"EC50, CellTox Green",[2],331 nM
same,"EC50, CellTox Green",[3],156 nM
same,"EC50, CellTox Green",[4],1430 nM
same,"EC50, CellTox Green",[5],928 nM
same,"EC50, CellTox Green",[6],2130 nM
same,"EC50, CellTiter-Blue viability",[7],310 nM
same,"EC50, CellTiter-Blue viability",[8],477 nM
same,"EC50, CellTiter-Blue viability",[9],382 nM
same,"EC50, CellTiter-Blue viability",[10],507 nM
same,"EC50, CellTiter-Blue viability",[11],242 nM
